SMILES strings stand for the structures.

The subject of this assay is TGF-β activation (phosphorylated SMAD3). The assay can be described thus: TGF-β activation inhibition test (inhibition of SMAD3 phosphorylation in TFK-1 cells). The conditions noted are these: 48 h, fibronectin-coated plate, cultured 2 days, read-out: IC50 (rate of inhibition of phosphorylated SMAD3). The assay is classed as cell-based. The method, boiled down:
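TFK-1 cells on fibronectin-coated wells cultured 2 days at 37° C. with compound in RPMI 1640 with 1% FBS. Phospho-SMAD3 (Ser423/425) measured by cellular kit as DeltaF; inhibition scaled between DMSO (0%) and 10 μM LY364947 (100%), and IC50 calculated.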
The term IC50 denotes the midpoint of a concentration-inhibition curve. In the case of `O=C(O)C[C@H](NC(=O)CNC(=O)c1cc(NC2=NCC(F)CN2)cc2[nH]ncc12)c1cc(Br)cc(C(F)(F)F)c1` (stereo partly drawn) [Example 53-(b), (3S)-3-(3-bromo-5-(trifluoromethyl)phenyl)-3-(2-(6-((5-fluoro-1,4,5,6-tetrahydropyrimidin-2-yl)amino)-1H-indazole-4-carboxamido)acetamido)propanoic acid], the IC50 was less than 0.01 µM.

As for `O=C(O)C[C@H](NC(=O)CNC(=O)c1cc(NC2=NCC(F)CN2)cc2[nH]ncc12)c1cc(I)cc(C(F)(F)F)c1` (stereo partly drawn) [Example 54-(b), (3S)-3-(2-(6-((5-fluoro-1,4,5,6-tetrahydropyrimidin-2-yl)amino)-1H-indazole-4-carboxamido)acetamido)-3-(3-iodo-5-(trifluoromethyl)phenyl)propanoic acid], the IC50 is less than 0.01 µM. Next, `O=C(O)C[C@H](NC(=O)CNC(=O)c1cc(NC2=NCC(F)CN2)cc2[nH]ncc12)c1ccc(F)c(C(F)(F)F)c1` (stereo partly drawn) [Example 55-(b), (3S)-3-(2-(6-((5-fluoro-1,4,5,6-tetrahydropyrimidin-2-yl)amino)-1H-indazole-4-carboxamido)acetamido)-3-(4-fluoro-3-(trifluoromethyl)phenyl)propanoic acid]: less than 0.01 µM.

With `O=C(O)C[C@H](NC(=O)CNC(=O)c1cc(NC2=NCC(F)CN2)cc2[nH]ncc12)c1cccc(C(F)(F)F)c1` (stereo partly drawn) [Example 56-(b), (3S)-3-(2-(6-((5-fluoro-1,4,5,6-tetrahydropyrimidin-2-yl)amino)-1H-indazole-4-carboxamido)acetamido)-3-(3-(trifluoromethyl)phenyl)propanoic acid], the IC50 was less than 0.01 µM.

These data come from US20230192661A1, “1, 4, 5, 6-TETRAHYDROPYRIMIDINE-2-AMINE DERIVATIVE” (UBE Corporation, priority 2020, published 2023).
